Test results as given in patent US11813306B2, “Cyclic tetramer compounds as proprotein convertase subtilisin/kexin type 9 (PCSK9) inhibitors for the treatment of metabolic disorders” (NOVARTIS AG, priority 2018, dated 2023).

Target: human PCSK9 (Homo sapiens, UniProt Q8NBP7)
Experiment: PCSK9 ligand binding assay (TR-FRET): interference with binding of human PCSK9 to human LDLR
Settings: for IC50: Human PCSK9 Alexa Fluor 647 / Human LDLR extracellular domain-Europium Kryptate; for Max % inhibition: efficacy (Amax), 100% = 1 uM unlabeled human PCSK9, 0% = DMSO
How it was run: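 Read-out was TR-FRET ratio (665 nm over 615 nm, 330 nm excitation) between Alexa Fluor 647-human PCSK9 (16 nM added) and Europium Kryptate-human LDLR ectodomain (4 nM added). Compound and PCSK9 were mixed 30 min before LDLR, then incubated 2 h. Inhibition was normalised to DMSO and unlabelled-PCSK9 controls, giving IC50 and Amax.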

Sequence of human PCSK9 (Q8NBP7 153-692): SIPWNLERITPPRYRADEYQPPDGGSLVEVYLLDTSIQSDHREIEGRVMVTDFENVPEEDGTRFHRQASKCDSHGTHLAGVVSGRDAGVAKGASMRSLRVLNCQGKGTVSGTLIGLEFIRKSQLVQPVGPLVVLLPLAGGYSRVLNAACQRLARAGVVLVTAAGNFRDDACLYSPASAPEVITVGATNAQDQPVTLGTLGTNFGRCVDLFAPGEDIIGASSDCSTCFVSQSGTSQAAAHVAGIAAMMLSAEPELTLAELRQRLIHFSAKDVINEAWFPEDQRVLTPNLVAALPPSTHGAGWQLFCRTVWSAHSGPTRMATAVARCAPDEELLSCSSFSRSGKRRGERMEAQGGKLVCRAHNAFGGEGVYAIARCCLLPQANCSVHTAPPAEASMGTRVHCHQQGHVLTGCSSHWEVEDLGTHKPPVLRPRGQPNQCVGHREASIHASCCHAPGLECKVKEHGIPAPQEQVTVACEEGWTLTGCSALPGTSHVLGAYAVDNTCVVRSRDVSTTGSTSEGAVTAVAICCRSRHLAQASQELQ
Sequence of human PCSK9 (Q8NBP7 31-152 partner limits assumed): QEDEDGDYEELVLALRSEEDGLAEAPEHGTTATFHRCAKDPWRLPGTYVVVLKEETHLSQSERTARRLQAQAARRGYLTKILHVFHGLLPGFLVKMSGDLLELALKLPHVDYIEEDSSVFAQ

Structure (SMILES) | IC50 [nM] | Max % inhibition [%]
CC[C@@H]1CC(=O)N(Cc2ccc(Cl)cc2Oc2ccc(-c3cnc(CN4CCCC4)n3C)cc2)[C@@H](C)C(=O)N[C@@H](CO)C(=O)N(C)[C@H](Cc2ccc(Cl)cc2)CN(C)C1=O.Cl [Compound 128, (2S, 5S, 8R, 12R)-1-(4-chloro-2-(4-(1-methyl-2-(pyrrolidin-1-ylmethyl)-1H-imidazol-5-yl)phenoxy)benzyl)-8-(4-chlorobenzyl)-12-ethyl-5-(hydroxymethyl)-2,7,10-trimethyl-1,4,7, 10-tetraazacyclotetradecane-3,6,11,114-tetraone] | 250 | 89.8
CC(=O)C[C@@H]1NC(=O)[C@H](C)N(Cc2ccc(Cl)cc2Oc2ccc(-c3cnc(CN4CCCC4)n3C)cc2)C(=O)C[C@@H](Cc2ccccc2)C(=O)N(C)C[C@@H](Cc2ccc(Cl)cc2)N(C)C1=O.Cl [Compound 129, (2S,5S,8R,12R)-12-benzyl-1-(4-chloro-2-(4-(1-methyl-2-(pyrrolidin-1-ylmethyl)-1H-imidazol-5-yl)phenoxy)benzyl)-8-(4-chlorobenzyl)-2,7,10-trimethyl-5-(2-oxopropyl)-1,4,7,10-tetraaza-cyclotetradecane-3,6,11,14-tetraone hydrochloride] | 205 | 87.3
C[C@H](NCc1ccc(Cl)cc1Oc1ccc(-c2cnc(CN(C)C)n2C)cc1)C(=O)N[C@H]1COC(=O)C[C@@H](Cc2ccccc2)C(=O)N(C)[C@@]2(Cc3ccc(Cl)cc3)CCCN(C2)C1=O [Compound 130, (2S)-N-((3S, 8R, 11R)-8-benzyl-11-(4-chlorobenzyl)-10-methyl-2,6,9-trioxo-5-oxa-1,10-diazabicyclo[9.3.1]pentadecan-3-yl)-2-((4-chloro-2-(4-(2-((dimethylamino)methyl)-1-methyl-1H-imidazol-5-yl)phenoxy)benzyl)amino)propanamide] | 879 | 99.3
COC[C@@H]1NC(=O)[C@H](CCCCN2CCOCC2)N(Cc2ccc(Cl)cc2Oc2ccc(-c3cnc(CN(C)C)n3C)cc2)C(=O)C[C@@H]([C@H]2CCc3ccccc32)C(=O)N(C)C[C@@H](Cc2ccc(Cl)cc2)N(C)C1=O.Cl [Compound 131, (2S, 5S, 8R, 12S)-1-(4-chloro-2-(4-(2-((dimethylamino)methyl)-1-methyl-1H-imidazol-5-yl)phenoxy)benzyl)-8-(4-chlorobenzyl)-12-((R)-2,3-dihydro-1H-inden-1-yl)-5-(methoxymethyl)-7,10-dimethyl-2-(4-morpholinobutyl)-1,4,7,10-tetraazacyclotetradecane-3,6,11,14-tetraone] | 281 | 91.9
COC[C@@H]1NC(=O)[C@H](CCC(=O)N2CCC2)N(Cc2ccc(Cl)cc2Oc2ccc(-c3cnc(CN4CCCC4)n3C)cc2)C(=O)C[C@@H]([C@H]2CC(C)(C)c3ccccc32)C(=O)N(C)C[C@@H](Cc2ccc(Cl)cc2)N(C)C1=O.Cl [Compound 132, (2S,5S,8R,12S)-2-(3-(azetidin-1-yl)-3-oxopropyl)-1-(4-chloro-2-(4-(1-methyl-2-(pyrrolidin-1-ylmethyl)-1H-imidazol-5-yl)phenoxy)benzyl)-8-(4-chlorobenzyl)-12-((R)-3,3-dimethyl-2,3-dihydro-1H-inden-1-yl)-5-(methoxymethyl)-7,10-dimethyl-1,4,7,10-tetraazacyclotetradecane-3,6,11,14-tetraone hydrochloride] | 231 | 100.3
COC[C@@H]1NC(=O)[C@H](C)N(Cc2ccc(Cl)cc2Oc2ccc(-c3cnc(CN4CCCC4)n3C)cc2)C(=O)C[C@@H](N(C)C)C(=O)N(C)C[C@@H](Cc2ccc(Cl)cc2)N(C)C1=O.Cl [Compound 134, (2S, 5S, 8R, 12R)-1-(4-chloro-2-(4-(1-methyl-2-(pyrrolidin-1-ylmethyl)-1H-imidazol-5-yl)phenoxy)benzyl)-8-(4-chlorobenzyl)-12-(dimethylamino)-5-(methoxymethyl)-2,7,10-trimethyl-1,4,7,10-tetraazacyclotetradecane-3,6,11,14-tetraone] | 490 | 93.6
C[C@H]1C(=O)N[C@@H](CC(=O)O)C(=O)N(C)[C@H](Cc2ccc(Cl)cc2)CN(C)C(=O)[C@H](Cc2ccccc2)CC(=O)N1Cc1ccc(Cl)cc1Oc1ccc(-c2cnc(CN3CCCC3)n2C)cc1.Cl [Compound 135, 2-((2S, 5S, 8R, 12R)-12-benzyl-1-(4-chloro-2-(4-(1-methyl-2-(pyrrolidin-1-ylmethyl)-1H-imidazol-5-yl)phenoxy)benzyl)-8-(4-chlorobenzyl)-2,7,10-trimethyl-3,6,11,14-tetraoxo-1,4,7,10-tetraazacyclotetradecan-5-yl)acetic acid] | 631 | 91.3
COC[C@@H]1NC(=O)[C@H](C)N(Cc2c(F)cc(Cl)cc2Oc2ccc(-c3cnc(CNC(C)(C)C)n3C)cc2)C(=O)C[C@@H](CC(F)(F)F)C(=O)N2CCC[C@@](Cc3ccc(Cl)cc3)(C2)N(C)C1=O [Compound 136, (3S,7S,10S,13R)-6-(2-(4-(2-((tert-Butylamino)methyl)-1-methyl-1H-imidazol-5-yl)phenoxy)-4-chloro-6-fluorobenzyl)-13-(4-chlorobenzyl)-10-(methoxymethyl)-7,12-dimethyl-3-(2,2,2-trifluoroethyl)-1,6,9,12-tetraazabicyclo[11.3.1]heptadecane-2,5,8,11-tetraone] | 0.26 | 113.0
COC[C@@H]1NC(=O)[C@H](C)N(Cc2c(F)cc(Cl)cc2Oc2ccc(-c3cnc(CN(C)C(C)(C)C)n3C)cc2)C(=O)C[C@@H](CC(F)(F)F)C(=O)N2CCC[C@@](Cc3ccc(Cl)cc3)(C2)NC1=O [Compound 137, (3S,7S,10S,13R)-6-(2-(4-(2-((tert-Butyl(methyl)amino)methyl)-1-methyl-1H-imidazol-5-yl)phenoxy)-4-chloro-6-fluorobenzyl)-13-(4-chlorobenzyl)-10-(methoxymethyl)-7-methyl-3-(2,2,2-trifluoroethyl)-1,6,9,12-tetraazabicyclo[11.3.1]heptadecane-2,5,8,11-tetraone] | 0.3 | 113.0
COC[C@@H]1NC(=O)[C@H](C)N(Cc2c(F)cc(Cl)cc2Oc2ccc(-c3cnc(CNC(C)(C)C)n3C)cc2)C(=O)C[C@@H](CC(F)(F)F)C(=O)N2CCC[C@@](Cc3ccc(Cl)cc3)(C2)NC1=O [Compound 138, (3S, 7S, 10S, 13R)-6-(2-(4-(2-((tert-butylamino)methyl)-1-methyl-1H-imidazol-5-yl)phenoxy)-4-chloro-6-fluorobenzyl)-13-(4-chlorobenzyl)-10-(methoxymethyl)-7-methyl-3-(2,2,2-trifluoroethyl)-1,6,9,12-tetraazabicyclo[11.3.1]heptadecane-2,5,8,11-tetraone] | 0.18 | 114.0
C[C@H]1C(=O)N[C@@H](CO)C(=O)N[C@@]2(Cc3ccc(Cl)cc3)CCCN(C2)C(=O)[C@H](CC(F)(F)F)CC(=O)N1Cc1c(F)cc(Cl)cc1Oc1ccc(-c2cnc(CN(C)C3CCC3)n2C)cc1 [Compound 139, (3S, 7S, 10S, 13R)-6-(4-chloro-2-(4-(2-((cyclobutyl(methyl)amino)methyl)-1-methyl-1H-imidazol-5-yl)phenoxy)-6-fluorobenzyl)-13-(4-chlorobenzyl)-10-(hydroxymethyl)-7-methyl-3-(2,2,2-trifluoroethyl)-1,6,9,12-tetraazabicyclo[11.3.1]heptadecane-2,5,8,11-tetraone] | 0.15 | 113.0
COC[C@@H]1NC(=O)[C@H](C)N(Cc2c(F)cc(Cl)cc2Oc2ccc(-c3cnc(CN(C)C)n3C)cc2)C(=O)C[C@@H](C2CCC2)C(=O)N2CCC[C@@](Cc3ccc(Cl)cc3)(C2)N(C)C1=O [Compound 140, (3S, 7S, 10S, 13R)-6-(4-chloro-2-(4-(2-((dimethylamino)methyl)-1-methyl-1H-imidazol-5-yl)phenoxy)-6-fluorobenzyl)-13-(4-chlorobenzyl)-3-cyclobutyl-10-(methoxymethyl)-7,12-dimethyl-1,6,9,12-tetraazabicyclo[11.3.1]heptadecane-2,5,8,11-tetraone] | 1.45 | 109.6
COC[C@@H]1NC(=O)[C@H](C)N(Cc2c(F)cc(Cl)cc2Oc2ccc(-c3cnc(CN(C)C(C)(C)C)n3C)cc2)C(=O)C[C@@H](CC(F)(F)F)C(=O)N2CCC[C@@](Cc3ccc(Cl)cc3)(C2)N(C)C1=O [Compound 141, (3S, 7S, 10S, 13R)-6-(2-(4-(2-((tert-butyl(methyl)amino)methyl)-1-methyl-1H-imidazol-5-yl)phenoxy)-4-chloro-6-fluorobenzyl)-13-(4-chlorobenzyl)-10-(methoxymethyl)-7,12-dimethyl-3-(2,2,2-trifluoroethyl)-1,6,9,12-tetraazabicyclo[11.3.1]heptadecane-2,5,8,11-tetraone] | 1.78 | 112.3
COC[C@@H]1NC(=O)[C@H](C)N(Cc2c(F)cc(Cl)cc2Oc2ccc(-c3cnc(CNC(C)(C)C)n3C)cc2)C(=O)C[C@@H](CC2CC2)C(=O)N2CCC[C@@](Cc3ccc(Cl)cc3)(C2)NC1=O [Compound 142, (3R, 7S, 10S, 13R)-6-(2-(4-(2-((tert-butylamino)methyl)-1-methyl-1H-imidazol-5-yl)phenoxy)-4-chloro-6-fluorobenzyl)-13-(4-chlorobenzyl)-3-(cyclopropylmethyl)-10-(methoxymethyl)-7-methyl-1,6,9,12-tetraazabicyclo[11.3.1]heptadecane-2,5,8,11-tetraone] | 0.91 | 111.1
